Test results: US7033784B1, “Method of producing an erythroid cell which is undifferentiated yet capable of expressing a heterologous protein” (Syngenta Limited, priority 1999, dated 2006)
Values belong to the molecule of their own block, whether it stands above or below them.

Legend:
[1] = molecular target: T1, Locusta migratoria tyramine receptor (TyrLoc) (Locusta migratoria, UniProt Q25321); assay: Ca2+ measurements (fura-2) in uninduced MEL-TyrLoc cells; assay type: cell-based; settings: for antagonism of the Ca2+ increase induced by TA: qualitative, data not shown for part
T1 construct: The coding region of the TyrLoc cDNA was amplified by polymerase chain reaction (PCR) from pVJ12 and pVJ12-IEG; expressed in transfected cells
T1 sequence (Q25321 12-484): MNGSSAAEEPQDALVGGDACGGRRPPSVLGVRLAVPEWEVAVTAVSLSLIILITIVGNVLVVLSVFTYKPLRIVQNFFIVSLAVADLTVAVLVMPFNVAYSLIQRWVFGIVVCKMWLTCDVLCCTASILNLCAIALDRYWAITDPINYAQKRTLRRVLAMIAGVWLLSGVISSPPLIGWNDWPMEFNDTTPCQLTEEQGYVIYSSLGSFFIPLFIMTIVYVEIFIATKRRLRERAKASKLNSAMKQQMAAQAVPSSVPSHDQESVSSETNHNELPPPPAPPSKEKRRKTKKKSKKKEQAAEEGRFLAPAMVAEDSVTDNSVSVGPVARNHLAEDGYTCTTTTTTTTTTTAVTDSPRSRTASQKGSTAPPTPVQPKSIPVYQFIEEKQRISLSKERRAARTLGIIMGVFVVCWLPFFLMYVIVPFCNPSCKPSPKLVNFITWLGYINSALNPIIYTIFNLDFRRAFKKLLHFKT
Description: (§1) Elevations in intracellular Ca^2+ in response to stimulation with ligands of the tyramine receptor were measured as follows. Since MEL cells loose the ability to signal on differentiation, and as receptor expression was readily detectable without induction of the MEL cells, uninduced MEL C88L cells of the invention were used.
(§2) Ca^2+ concentration was measured by using the acetoxymethyl (AM) ester of the fluorescent indicator fura-2 (Grynkiewicz G et al. (1985) J. Biol. Chem. 260 3440–3450). Cells were washed with NCF buffer (135 mM NaCl, 5 mM KCl, 6 mM glucose, 0.62 mM MgCl2.6H2O, 10 mM HEPES, pH 7.4 with 4 mM CaCl2) and resuspended at a concentration of 2.10^6 cells/ml in NCF buffer containing 2 μM fura-2-AM (Molecular Probes). After 1 hour incubation in the dark at 27° C., the cell suspension was subjected to centrifugation at 1200 rpm for 5 minutes, resuspended in an equal volume of NCF buffer and incubated for an additional 30 min in the dark. Aliquots were centrifuged as above and resuspended in 3 ml NCF buffer. Measurements of intracellular calcium were made fluorimetrically in a LS-50B Luminescence Spectrophotometer (Perkin-Elmer) in the presence and absence of the appropriate test chemical. Excitation wavelength alternated between 340 and 380 nm. The fluorescence intensity was monitored at an emission wavelength of 510 nm.

[2] = molecular target: T1, Locusta migratoria tyramine receptor (TyrLoc); assay: cAMP measurements (Scintillation Proximity Assay) in MEL-TyrLoc cells; assay type: cell-based; settings: for antagonism of the effect of TA on cAMP: 10 μM Fsk + 0.1 μM TA, yohimbine 100 nM to 1 nM, mianserin 10 nM, chlorpromazine 10 nM; for inhibition of forskolin-induced increase of cAMP: 10 μM Fsk + 1 nM to 10 μM TA, FIG. 6
Description: (§3) The effect of TA on the cAMP level of the transformed and untransformed cells was investigated. MEL-C88L and MEL-TyrLoc cells were seeded in 6-well plates to a density of 8.10^5 cells/well and allowed to attach. The cell medium was removed and, in different wells, replaced with different NCF buffer solutions as follows: • (i) NCF+1 μM tyramine (TA), • (ii) NCF+10 μM forskolin (Fsk), • (iii) NCF+10 μM Fsk+1 nM to 10 μM TA. where NCF comprised 135 mM NaCl, 5 mM KCl, 6 mM glucose, 0.62 mM MgCl2, 10 mM Hepes pH 7.4 4 mM CaCl2.
For the use of other ligands than TA, the solutions were: • (iv) NCF+10 μM Fsk+1 μM OA, • (v) NCF+10 μM Fsk+0.1 μM TA+100 nM to 1 nM yohimbine, • (vi) NCF+10 μM Fsk+0.1 μM TA+10 nM mianserin; and • (vii) NCF+10 μM Fsk+0.1 μM TA+10 nM chlorpromazine.
(§4) All solutions contained 200 μM […] (IBMX) in order to inhibit cAMP phosphodiesterase. In each study, triplicate wells were incubated with the same solution at 37° C. for exactly 30 min.
(§5) In order to extract the cAMP, 100% ice-cold ethanol was added to each well to a final concentration of 65%. After 5 min incubation at room temperature, the solution was removed from the wells which were then rinsed with 65% ethanol. The eluates from the same well were then pooled together and evaporated using a speedvac. cAMP was then measured using the Scintillation Proximity Assay (Amersham), according to the manufacturers recommended procedure. This experiment was done in triplicate.

[3] = test system: Untransformed MEL-C88L cells; assay: cAMP measurements (Scintillation Proximity Assay) in untransformed MEL-C88L cells; assay type: cell-based, Murine; settings: 200 μM IBMX, FIG. 5
Description: as §3, §4, §5

[4] = test system: Untransformed MEL-C88L cells; assay: Ca2+ measurements (fura-2) in untransformed MEL-C88L control cells; assay type: cell-based, Murine; settings: concentrations as high as 100 μM TA
Description: as §1, §2

[5] = molecular target: Dopamine Receptor (D-Dop1) (Drosophila melanogaster, UniProt P41596); settings: 10 μM dopamine, Clones C and 2, 1×10^6 cells/well, FIG. 7
serotonin receptor = assay: β-galactosidase (CRE reporter) assay using serotonin clones of MEL C88L cells
[6] = yohimbine 0.1, 1 and 2.5 μM, FIG. 4

Sequence of Dopamine Receptor (D-Dop1) (P41596 20-511): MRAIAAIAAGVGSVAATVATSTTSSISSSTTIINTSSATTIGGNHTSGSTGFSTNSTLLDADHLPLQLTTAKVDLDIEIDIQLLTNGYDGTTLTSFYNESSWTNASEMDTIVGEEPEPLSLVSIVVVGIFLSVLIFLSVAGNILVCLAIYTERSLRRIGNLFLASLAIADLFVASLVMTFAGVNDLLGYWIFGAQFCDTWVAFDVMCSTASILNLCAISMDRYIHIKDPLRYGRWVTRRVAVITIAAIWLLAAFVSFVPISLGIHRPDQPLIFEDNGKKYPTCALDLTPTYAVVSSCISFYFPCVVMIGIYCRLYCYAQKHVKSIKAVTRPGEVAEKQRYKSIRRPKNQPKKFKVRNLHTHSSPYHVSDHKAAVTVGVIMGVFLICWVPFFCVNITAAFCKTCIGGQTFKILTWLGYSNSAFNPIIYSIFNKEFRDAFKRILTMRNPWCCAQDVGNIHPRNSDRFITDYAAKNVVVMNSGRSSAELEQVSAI

Structure (SMILES): CN(C)CCCN1c2ccccc2Sc2ccc(Cl)cc21 [Chlorpromazine]
antagonism of the Ca2+ increase induced by TA [1]: clearly inhibited
antagonism of the effect of TA on cAMP [2]: antagonistic effects

Structure (SMILES): C=C[C@@]1(C)CC(=O)[C@]2(O)[C@@]3(C)[C@@H](O)CCC(C)(C)[C@@H]3[C@H](O)[C@H](OC(C)=O)[C@@]2(C)O1 [Forskolin, forskolin]
increase of cAMP level ([3]; 10 μM forskolin with or without TA): more than 6 times

Structure (SMILES): NCC(O)c1ccc(O)cc1 (centres unmarked) [OA, octopamine]
Ca2+ increase compared with TA ([1]; OA 0.5 μM versus TA 10 nM (50 times higher concentration), FIG. 3): much lesser extent than TA

Structure (SMILES): NCCc1ccc(O)cc1 [TA, tyramine]
Ca2+ response in untransformed cells [4]: no response
TA concentration giving maximal Ca2+ response ([1]; MEL-TyrLoc clone, FIG. 2): 1 µM
Ca2+ increase after addition of TA ([1]; MEL-TyrLoc clone, dose-response 0.01 μM upwards, FIG. 2): clear transient increase in Ca^2+
activating concentrations lower than OA ([1]; TA versus OA as agonist of TyrLoc in MEL-TyrLoc cells (summary of Ca2+ and cAMP results)): 3–4 orders of magnitude
effect on cAMP level in untransformed cells ([3]; 1 μM TA, 30 min): did not result in any effect
inhibition of forskolin-induced increase of cAMP ([2]; 200 μM IBMX): significantly inhibits
inhibition of forskolin-induced increase of cAMP ([2]; 200 μM IBMX, listed as tyramine): inhibition
TA concentration giving maximal response (cAMP inhibition) ([2]; 10 μM Fsk, 200 μM IBMX): 1 µM
TA concentration giving minimal response (cAMP inhibition) ([2]; 10 μM Fsk, 200 μM IBMX): 1 nM
decrease in cAMP production with 1 μM TA when compared to 1 μM OA ([2]; 10 μM Fsk, 200 μM IBMX): 4 fold

Structure (SMILES): COC(=O)[C@@H]1[C@H]2C[C@H]3c4[nH]c5ccccc5c4CCN3C[C@@H]2CC[C@@H]1O [Yohimbine]
antagonism of the Ca2+ increase induced by TA [1]: strongest antagonist
antagonism of the Ca2+ increase induced by TA ([1]; listed as yohimbine): better receptor antagonist than chlorpromazine and mianserin
inhibition of the Ca2+ response to 0.5 μM TA [1, 6]: concentration-dependent inhibition
inhibition of the Ca2+ response to 5 μM TA [1, 6]: could not inhibit
inhibition of the Ca2+ response to 0.5 μM TA ([1]; yohimbine 0.1, 1 and 2.5 μM, FIG. 4, listed as yohimbin): inhibition
antagonism of the effect of TA on cAMP [2]: inhibited the effect of TA in a dose dependent manner

absorbance at 570 nm (β-galactosidase, indicating cyclic AMP) with dopamine [5]: increase in absorbance at 570 nm
Structure (SMILES): NCCc1ccc(O)c(O)c1 [dopamine]

Structure (SMILES): C[C@H](CCC(=O)O)C[C@H](C)C[C@H](C)C(=O)/C=C(\O)[C@H](C)C[C@H](C)C/C=C/[C@@H](C)[C@@H](O)[C@@H](C)[C@@H](O)C[C@@H]1CC[C@@](C)([C@H]2CC[C@@](C)([C@@H](C)O)O2)O1 [ionomycin]
intracellular Ca2+ concentration after ionophore ([1]; 2 μM ionomycin, check of fura-2 loading): large increase

Structure (SMILES): CCN(CC)CCNC(=O)c1cc(Cl)c(N)cc1OC [metaclopramide]
effect on basal Ca2+ concentrations or on the response of the cells to TA ([1]; at concentrations below 20 μM): no detectable effect

Structure (SMILES): CN1CCN2c3ccccc3Cc3ccccc3C2C1 (centres unmarked) [mianserin]
antagonism of the Ca2+ increase induced by TA [1]: clearly inhibited
antagonism of the effect of TA on cAMP [2]: antagonistic effects

Structure (SMILES): c1ccc2c(CC3=NCCN3)cccc2c1 [naphazoline]
antagonism of the Ca2+ increase induced by TA [1]: weak antagonists

Structure (SMILES): NCCc1c[nH]c2ccc(O)cc12 [serotonin]
forskolin stimulated cAMP in the presence of serotonin (serotonin receptor; forskolin and serotonin): decrease in forskolin stimulated cAMP
cyclic AMP signal with serotonin alone (serotonin receptor; serotonin alone): no effect

Structure (SMILES): c1ccc(CC2=NCCN2)cc1 [tolazoline]
antagonism of the Ca2+ increase induced by TA [1]: weak antagonists
